Assay results reported in ChEMBL document CHEMBL1201862, “PubChem BioAssay data set” (2004).
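Cultured in 96-well plates, cells were exposed to test compound for 48 hours across five concentrations. The concentration for 50% growth inhibition is given as GI50.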 The source made the active and inactive calls. No stated cut-off is given here; in the data, active = GI50 up to about 1.1 µM and inactive = higher.

Key:
Assay in all cases: DTP human tumour cell line panel, 48 h
A549 = system: A549
ACHN = system: ACHN
HL-60 = system: HL-60
IGROV-1 = system: IGROV-1
K562 = system: K562
LOX IMVI = system: LOX IMVI
Malme-3M = system: Malme-3M
NCI-H226 = system: NCI-H226
NCI-H522 = system: NCI-H522
RPMI-8226 = system: RPMI-8226
SF-539 = system: SF-539
SK-MEL-28 = system: SK-MEL-28
SNB-19 = system: SNB-19
U-251 = system: U-251
UO-31 = system: UO-31
CAKI-1 = system: CAKI-1
SK-MEL-2 = system: SK-MEL-2
SK-MEL-5 = system: SK-MEL-5

Measured: GI50

CN(C)c1ccc(-c2cc(O)c3ccccc3n2)cc1
inactive: A549 > 100 µM | ACHN > 100 µM | HL-60 > 100 µM | IGROV-1 > 100 µM | K562 > 100 µM | LOX IMVI > 100 µM | Malme-3M > 100 µM | NCI-H226 > 100 µM | NCI-H522 > 100 µM | RPMI-8226 > 100 µM | SF-539 > 100 µM | SK-MEL-28 > 100 µM | SNB-19 > 100 µM | U-251 > 100 µM | UO-31 > 100 µM

CC1=C(C(=O)NNS(=O)(=O)c2ccc(C)cc2)CC(C(=O)NNS(=O)(=O)c2ccc(C)cc2)=C(C)N1
inactive: A549 > 100 µM | ACHN 84.9 µM | CAKI-1 94.2 µM | HL-60 55.1 µM | IGROV-1 > 100 µM | K562 56.9 µM | LOX IMVI > 100 µM | Malme-3M > 100 µM | NCI-H226 > 100 µM | NCI-H522 66.5 µM | RPMI-8226 36.2 µM | SF-539 > 100 µM | SK-MEL-28 > 100 µM | SK-MEL-2 > 100 µM | SNB-19 > 100 µM | U-251 > 100 µM | UO-31 > 100 µM

CNC(=S)N/N=C1\CC(c2ccccc2)Oc2ccccc21 (configuration not stated)
inactive: A549 > 100 µM | ACHN > 100 µM | CAKI-1 > 100 µM | IGROV-1 > 100 µM | K562 > 100 µM | LOX IMVI > 100 µM | Malme-3M > 100 µM | NCI-H226 43.7 µM | NCI-H522 > 100 µM | SF-539 > 100 µM | SK-MEL-28 > 100 µM | SK-MEL-2 > 100 µM | SK-MEL-5 88.5 µM | SNB-19 > 100 µM | U-251 > 100 µM | UO-31 8.11 µM

COc1ccc(C2C3=C(COC3=O)Oc3cc4c(cc32)OCO4)cc1 (configuration not stated)
inactive: A549 9.18 µM | ACHN 21.1 µM | CAKI-1 7.53 µM | HL-60 3.97 µM | IGROV-1 32.2 µM | K562 3.85 µM | LOX IMVI 27.4 µM | Malme-3M 56 µM | RPMI-8226 12.7 µM | SF-539 19.4 µM | SK-MEL-28 47.9 µM | SK-MEL-2 47.1 µM | SK-MEL-5 11.7 µM | SNB-19 61.4 µM | U-251 23.9 µM | UO-31 16.7 µM

CC(C)(C)[C@H]1CO[C@]2(C)[C@@H]3C[C@@H]3C(=O)N12
inactive: A549 > 100 µM | ACHN > 100 µM | CAKI-1 > 100 µM | HL-60 > 100 µM | IGROV-1 > 100 µM | K562 > 100 µM | LOX IMVI > 100 µM | Malme-3M > 100 µM | NCI-H226 > 100 µM | NCI-H522 > 100 µM | RPMI-8226 > 100 µM | SF-539 > 100 µM | SK-MEL-28 > 100 µM | SK-MEL-2 > 100 µM | SK-MEL-5 > 100 µM | SNB-19 > 100 µM | U-251 > 100 µM | UO-31 > 100 µM

O=C1[C@H]2C(c3ccccc3)=NN(C(=O)c3ccccc3)[C@H]2C(=O)N1c1ccccc1
inactive: A549 > 100 µM | ACHN > 100 µM | IGROV-1 > 100 µM | K562 > 100 µM | LOX IMVI > 100 µM | Malme-3M > 100 µM | NCI-H226 > 100 µM | NCI-H522 > 100 µM | RPMI-8226 > 100 µM | SF-539 > 100 µM | SK-MEL-28 > 100 µM | SK-MEL-2 > 100 µM | SNB-19 > 100 µM | U-251 > 100 µM | UO-31 > 100 µM
